Reference: ChEMBL document CHEMBL5303304, “EUbOPEN Chemogenomics Library - IncuCyte” (2023)

How the values were obtained:
Format in all cases: toxicity, cell-based
U2OS = experiment: Incucyte cell viability with U2OS; details: human, 10 µM, compound concentration 10 uM
HEK-293T = experiment: Incucyte cell viability with HEK293T; details: human, 10 µM, compound concentration 10 uM
Fibroblast = experiment: Incucyte cell viability with human fibroblast; details: 10 µM, compound concentration 10 uM
Further: unitless GR value; below 1 slowed growth and below 0 cell loss.

Molecule	Growth Rate (U2OS; 6 h, replicate number 1)	Growth Rate (U2OS; 12 h, replicate number 1)	Growth Rate (HEK-293T; 0 h, replicate number 2)	Growth Rate (Fibroblast; 0 h, replicate number 2)	Growth Rate (Fibroblast; 6 h, replicate number 2)	Growth Rate (Fibroblast; 12 h, replicate number 1)	Growth Rate (Fibroblast; 18 h, replicate number 1)	Growth Rate (Fibroblast; 24 h, replicate number 1)	Growth Rate (U2OS; 0 h, replicate number 1)	Growth Rate (U2OS; 18 h, replicate number 1)	Growth Rate (U2OS; 24 h, replicate number 1)	Growth Rate (HEK-293T; 6 h, replicate number 1)	Growth Rate (HEK-293T; 12 h, replicate number 1)	Growth Rate (HEK-293T; 18 h, replicate number 1)	Growth Rate (HEK-293T; 18 h, replicate number 2)	Growth Rate (HEK-293T; 24 h, replicate number 1)	Growth Rate (Fibroblast; 12 h, replicate number 2)	Growth Rate (Fibroblast; 18 h, replicate number 2)	Growth Rate (Fibroblast; 24 h, replicate number 2)	Growth Rate (U2OS; 0 h, replicate number 2)	further results
O=C(O)c1cc(F)c2nc(N3[C@@H]4CC[C@H]3C[C@@H](OCc3c(-c5ccccc5OC(F)(F)F)noc3C3CC3)C4)sc2c1 [TROPIFEXOR]	0.63	0.99	0.6	0.33	0.98	0.31	0.63	0.97													
CC(C)C[C@H](NC(=O)[C@@H](O)[C@H](N)Cc1ccccc1)C(=O)O [UBENIMEX]	0.42	0.82		-0.85					0.42	0.94	0.89	0.49	0.55	0.49	0.98	0.59	0.72	0.83	0.91		Growth Rate (HEK-293T; 0 h, replicate number 1): 0.14; Growth Rate (HEK-293T; 24 h, replicate number 2): 0.92
c1cnc2cc3c(cc2n1)[C@@H]1CNC[C@H]3C1 [VARENICLINE]		0.98	0.72				-0.31		0.97	0.91	0.92	0.65			0.95	0.99					Growth Rate (U2OS; 6 h, replicate number 2): 0.65; Growth Rate (U2OS; 12 h, replicate number 2): 0.82; Growth Rate (U2OS; 18 h, replicate number 2): 1; Growth Rate (U2OS; 24 h, replicate number 2): 0.9; Growth Rate (HEK-293T; 6 h, replicate number 2): 0.78; Growth Rate (HEK-293T; 12 h, replicate number 2): 0.87; Growth Rate (Fibroblast; 0 h, replicate number 1): 0.28
CC1(C)CCC(CN2CCN(c3ccc(C(=O)NS(=O)(=O)c4ccc(NCC5CCOCC5)c([N+](=O)[O-])c4)c(Oc4cnc5[nH]ccc5c4)c3)CC2)=C(c2ccc(Cl)cc2)C1 [VENETOCLAX]	0.5	0.81	0.6	-0.85		0.87			0.58	0.78	0.81	0.01	0.58	0.66		0.87				-0.65	Growth Rate (U2OS; 6 h, replicate number 2): 0.98; Growth Rate (U2OS; 12 h, replicate number 2): 0.51; Growth Rate (U2OS; 18 h, replicate number 2): 0.89; Growth Rate (U2OS; 24 h, replicate number 2): 0.93; Growth Rate (Fibroblast; 6 h, replicate number 1): 0.5
CCOC(=O)C1=C[C@]2(CC)CCCN3CCc4c(n1c1ccccc41)[C@@H]32 [VINPOCETINE]			0.71		-0.97	-1			-0.74			0.46	1	0.95	0.89	0.94	0.32	0.85		-0.97	Growth Rate (U2OS; 6 h, replicate number 2): 0.42; Growth Rate (U2OS; 12 h, replicate number 2): 0.83; Growth Rate (U2OS; 18 h, replicate number 2): 0.73; Growth Rate (U2OS; 24 h, replicate number 2): 0.79; Growth Rate (HEK-293T; 12 h, replicate number 2): 0.83; Growth Rate (Fibroblast; 6 h, replicate number 1): 0.56
CNC(=O)c1cccc(-c2ccc3c(N4CCOC[C@@H]4C)nc(N4CCOC[C@@H]4C)nc3n2)c1 [VISTUSERTIB]	0.98			-0.6			0.78	0.66	0.02	0.93	0.56	-0.56	-0.41	-0.28	-0.39	-0.18	0.26	0.18	0.33		Growth Rate (HEK-293T; 6 h, replicate number 2): -0.82; Growth Rate (HEK-293T; 12 h, replicate number 2): -0.55; Growth Rate (HEK-293T; 24 h, replicate number 2): -0.28
COc1cccc(CNc2ccc(S(=O)(=O)Nc3nc4ccccc4s3)cc2)c1O [VLX-1005]	0.62	0.89			0.25			1			0.99			0.96			0.76	0.84	0.84		Growth Rate (HEK-293T; 0 h, replicate number 1): 0.18
CN[C@@H](C)C(=O)N[C@H]1CN(C(=O)CC(C)C)CC[C@H]2CC[C@@H](C(=O)NC(c3ccccc3)c3ccccc3)N2C1=O [XEVINAPANT]				0.68	0.35	0.68		0.9				0.36	0.86	0.71	0.97	0.92	0.73	0.78	0.88	0.1	Growth Rate (HEK-293T; 0 h, replicate number 1): 0.08; Growth Rate (Fibroblast; 6 h, replicate number 1): -0.46
Cc1cccc(F)c1C(=O)Nc1cnc(-c2cc3c(cc2Cl)OC(F)(F)O3)cn1 [ZEGOCRACTIN]	0.26	0.45		-0.42	-0.57	-0.81	0.77	0.84	0.13	0.72	0.8	-0.06	0.19	0.24	0.31	0.34	0.2	0.4	0.26	-0.79	Growth Rate (U2OS; 6 h, replicate number 2): 0.28; Growth Rate (U2OS; 12 h, replicate number 2): 0.78; Growth Rate (U2OS; 18 h, replicate number 2): 0.9; Growth Rate (U2OS; 24 h, replicate number 2): 0.92; Growth Rate (HEK-293T; 6 h, replicate number 2): -0.48; Growth Rate (HEK-293T; 12 h, replicate number 2): -0.06
Cn1c(=O)n(CCCO)c(=O)c2c1nc(Oc1cccc(OC(F)(F)F)c1)n2Cc1ccc(Cl)cc1 [ZERENCOTREP]		0.8	0.33		-0.98	-1				0.88	0.94	0.54	0.92	0.98			0.88	0.6	0.54	-0.21	Growth Rate (HEK-293T; 0 h, replicate number 1): 0.5; Growth Rate (HEK-293T; 6 h, replicate number 2): 0.64; Growth Rate (Fibroblast; 6 h, replicate number 1): -0.36
H-LVVYPWT-OH [SPINORPHIN]	0.61	0.76	0.94	-0.78	-0.61	-1	0.38	0.41	0.44	0.82		0.99					0.52	0.87	0.94	-1	Growth Rate (U2OS; 6 h, replicate number 2): 0.08; Growth Rate (U2OS; 12 h, replicate number 2): 0.43; Growth Rate (U2OS; 18 h, replicate number 2): 0.66; Growth Rate (U2OS; 24 h, replicate number 2): 0.92; Growth Rate (HEK-293T; 0 h, replicate number 1): 0.9; Growth Rate (Fibroblast; 0 h, replicate number 1): -0.25; Growth Rate (Fibroblast; 6 h, replicate number 1): -0.34
